Assay results: ChEMBL document CHEMBL5331071, “Structure-activity relationship study of amidobenzimidazole derivatives as stimulator of interferon genes (STING) agonists” (Eur J Med Chem, 2023)
Active and inactive are the calls of the source. No cut-off for these calls is given here.

How the values were obtained:
[1] = Stability in rat plasma assessed as residual of initial concentration at 1 hr; format: ADME, cell-free; conditions: read-out: Stability
[2] = molecular target: T1, Stimulator of interferon genes protein (Mus musculus, UniProt Q3TBT3); assay: Agonist activity at STING in mouse RAW-Lucia ISG cells by luciferase gene reporter assay; format: cell-based
T1 sequence (Q3TBT3 whole entry): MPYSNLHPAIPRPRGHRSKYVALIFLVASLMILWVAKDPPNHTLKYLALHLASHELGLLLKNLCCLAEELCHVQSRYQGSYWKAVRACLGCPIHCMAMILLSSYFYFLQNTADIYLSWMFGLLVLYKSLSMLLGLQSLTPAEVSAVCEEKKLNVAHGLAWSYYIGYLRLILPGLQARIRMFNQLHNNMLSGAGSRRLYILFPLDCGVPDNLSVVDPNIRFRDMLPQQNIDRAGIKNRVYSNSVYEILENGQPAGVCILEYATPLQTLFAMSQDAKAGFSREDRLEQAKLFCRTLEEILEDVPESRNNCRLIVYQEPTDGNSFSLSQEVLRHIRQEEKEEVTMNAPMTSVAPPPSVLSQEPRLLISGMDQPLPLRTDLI

[3] = molecular target: T2, Stimulator of interferon genes protein (Mus musculus) (UniProt Q3TBT3); assay: Activation of STING in mouse RAW264.7 cells assessed as increase in IFN-beta expression at 10 to 100 uM incubated for 24 hrs by qRT-PCR analysis; format: cell-based; conditions: dose 10-100 µM
T2 sequence (whole entry): T1 sequence (Q3TBT3 whole entry)

[4] = molecular target: T2, Stimulator of interferon genes protein (Mus musculus); assay: Activation of STING in mouse RAW264.7 cells assessed as increase in CXCL10 expression at 10 to 100 uM incubated for 24 hrs by qRT-PCR analysis; format: cell-based; conditions: dose 10-100 µM
[5] = Metabolic stability in Sprague-Dawley rat plasma assessed as compound remaining measured after 2 hrs by LC-MS/MS analysis; format: ADME, cell-free; conditions: read-out: Stability
THP1-Dual = assay: Cytotoxicity against human THP1-Dual habouring STING assessed as inhibition of cell growth by MTS assay; format: functional, cell-based
[6] = molecular target: T3, Stimulator of interferon genes protein (Homo sapiens, UniProt Q86WV6); assay: Activation of STING signalling pathway in human THP1-Dual cells assessed as increase in NF-kappaB-SEAP activation incubated for 24 hrs by QUANTI-Blue reagent based assay; format: cell-based
T3 sequence (Q86WV6 whole entry): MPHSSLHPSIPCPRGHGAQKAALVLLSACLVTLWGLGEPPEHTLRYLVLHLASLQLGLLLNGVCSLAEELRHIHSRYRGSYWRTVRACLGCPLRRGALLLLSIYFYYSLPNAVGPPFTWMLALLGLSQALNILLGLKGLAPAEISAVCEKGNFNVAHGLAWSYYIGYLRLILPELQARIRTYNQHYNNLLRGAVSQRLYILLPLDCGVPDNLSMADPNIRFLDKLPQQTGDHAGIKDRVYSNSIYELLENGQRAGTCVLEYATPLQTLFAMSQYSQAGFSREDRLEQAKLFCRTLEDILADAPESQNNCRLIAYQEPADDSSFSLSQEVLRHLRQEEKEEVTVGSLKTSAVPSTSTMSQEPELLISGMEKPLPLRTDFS

[7] = molecular target: T3, Stimulator of interferon genes protein; assay: Activation of STING signalling pathway in human THP-1 cells assessed as increase in TNF-alpha level incubated for 4 hrs by ELISA method; format: cell-based; conditions: filed as agonist, dose 3.7-33.3 pg/ml
[8] = molecular target: T3, Stimulator of interferon genes protein; assay: Agonist activity at STING in human THP1-Dual cells incubated for 20 hrs by Quanti-luc reagent based assay; format: cell-based
[9] = molecular target: T3, Stimulator of interferon genes protein; assay: Activation of STING signaling pathway in human wild type THP-1 cells assessed as increase in IFN-beta mRNA level at 50 uM measured after 4 hrs by qRT-PCR analysis; format: cell-based; conditions: filed as agonist
[10] = molecular target: T3, Stimulator of interferon genes protein; assay: Activation of STING signalling pathway in human PBMC cells assessed as increase in CXCL10 level incubated for 4 hrs by ELISA method; format: cell-based
[11] = molecular target: T2, Stimulator of interferon genes protein (Mus musculus); assay: Activation of STING in mouse RAW264.7 cells assessed as increase in IRF3 phosphorylation at 10 to 100 uM incubated for 4 hrs by Western blot analysis; format: cell-based; conditions: dose 10-100 µM
[12] = molecular target: T3, Stimulator of interferon genes protein; assay: Activation of STING signalling pathway in human wild type THP-1 cells assessed as increase in IRF3 phosphorylation at 10 uM measured after 1 hr by Western blot analysis; format: cell-based; conditions: filed as agonist
[13] = molecular target: T3, Stimulator of interferon genes protein; assay: Activation of STING signalling pathway in human wild type THP-1 cells assessed as increase in TBK1 phosphorylation at 10 uM measured after 1 hr by Western blot analysis; format: cell-based; conditions: filed as agonist
[14] = molecular target: T3, Stimulator of interferon genes protein; assay: Activation of STING signalling pathway in human THP-1 cells assessed as increase in IL-6 level incubated for 4 hrs by ELISA method; format: cell-based; conditions: filed as agonist, dose 3.7-33.3 pg/ml
[15] = molecular target: T3, Stimulator of interferon genes protein; assay: Activation of STING signaling pathway in human PBMC cells assessed as increase in IL-6 mRNA level at 0.1 to 1 uM measured after 4 hrs by qRT-PCR analysis; format: cell-based; conditions: filed as agonist, dose 0.1-1 µM
[16] = molecular target: T3, Stimulator of interferon genes protein; assay: Activation of STING signalling pathway in human THP-1 cells assessed as increase in CXCL10 level incubated for 4 hrs by ELISA method; format: cell-based; conditions: filed as agonist, dose 0.046-0.421 pg/ml
[17] = molecular target: T3, Stimulator of interferon genes protein; assay: Activation of STING signalling pathway in human PBMC cells assessed as increase in IFN-beta level incubated for 4 hrs by ELISA method; format: cell-based
[18] = molecular target: T3, Stimulator of interferon genes protein; assay: Activation of STING signalling pathway in human PBMC cells assessed as increase in IL-6 level incubated for 4 hrs by ELISA method; format: cell-based
[19] = molecular target: T3, Stimulator of interferon genes protein; assay: Activation of STING signalling pathway in human PBMC cells assessed as increase in TBK1 phosphorylation at 10 uM measured after 1 hr by Western blot analysis; format: cell-based; conditions: filed as agonist
[20] = molecular target: T3, Stimulator of interferon genes protein; assay: Activation of STING signalling pathway in human THP1-Dual cells assessed as increase in IRF-luciferase activation incubated for 24 hrs by QUANTI-luc assay; format: cell-based
[21] = molecular target: T3, Stimulator of interferon genes protein; assay: Activation of STING signalling pathway in human PBMC cells assessed as increase in STING phosphorylation at 10 uM measured after 1 hr by Western blot analysis; format: cell-based; conditions: filed as agonist
[22] = molecular target: T3, Stimulator of interferon genes protein; assay: Activation of STING signaling pathway in human PBMC cells assessed as increase in IFN-beta mRNA level at 0.1 to 1 uM measured after 4 hrs by qRT-PCR analysis; format: cell-based; conditions: filed as agonist, dose 0.1-1 µM
[23] = molecular target: T3, Stimulator of interferon genes protein; assay: Activation of STING signalling pathway in human PBMC cells assessed as increase in STING phosphorylation at 55.68 uM measured after 1 hr by Western blot analysis; format: cell-based
[24] = molecular target: T2, Stimulator of interferon genes protein (Mus musculus); assay: Activation of STING in mouse RAW264.7 cells assessed as increase in IL-6 expression at 10 to 100 uM incubated for 24 hrs by qRT-PCR analysis; format: cell-based; conditions: dose 10-100 µM
[25] = Metabolic stability in Sprague-Dawley rat plasma assessed as compound remaining measured after 1 hr by LC-MS/MS analysis; format: ADME, cell-free; conditions: read-out: Stability
[26] = molecular target: T3, Stimulator of interferon genes protein; assay: Activation of STING signalling pathway in human PBMC cells assessed as increase in IRF3 phosphorylation at 10 uM measured after 1 hr by Western blot analysis; format: cell-based; conditions: filed as agonist
[27] = molecular target: T3, Stimulator of interferon genes protein; assay: Activation of STING signaling pathway in human wild type THP-1 cells assessed as increase in CXCL10 mRNA level at 50 uM measured after 4 hrs by qRT-PCR analysis; format: cell-based; conditions: filed as agonist
[28] = molecular target: T3, Stimulator of interferon genes protein; assay: Activation of STING signalling pathway in human wild type THP-1 cells assessed as increase in STING phosphorylation at 10 uM measured after 1 hr by Western blot analysis; format: cell-based; conditions: filed as agonist
[29] = molecular target: T3, Stimulator of interferon genes protein; assay: Activation of STING signaling pathway in human PBMC cells assessed as increase in CXCL10 mRNA level at 0.1 to 1 uM measured after 4 hrs by qRT-PCR analysis; format: cell-based; conditions: filed as agonist, dose 0.1-1 µM
[30] = molecular target: T2, Stimulator of interferon genes protein (Mus musculus); assay: Activation of STING in mouse RAW264.7 cells assessed as increase in TBK1 phosphorylation at 10 to 100 uM incubated for 4 hrs by Western blot analysis; format: cell-based; conditions: dose 10-100 µM
[31] = molecular target: T3, Stimulator of interferon genes protein; assay: Agonist activity at STING in human […] KO-STING cells incubated for 20 hrs by Quanti-luc reagent based assay; format: cell-based, THP1-Dual KO-STING
[32] = molecular target: T3, Stimulator of interferon genes protein; assay: Activation of STING signalling pathway in human wild type THP-1 cells assessed as increase in IFN-beta secretion incubated for 4 hrs by ELISA method; format: cell-based
[33] = Cytotoxicity against human THP1-Dual KO-STING cells assessed as inhibition of cell growth by MTS assay; format: functional, cell-based
[34] = molecular target: T3, Stimulator of interferon genes protein; assay: Activation of STING signaling pathway in human wild type THP-1 cells assessed as increase in IL-6 mRNA level at 50 uM measured after 4 hrs by qRT-PCR analysis; format: cell-based; conditions: filed as agonist

## CCn1nc(C)cc1C(=O)Nc1nc2cc(C(N)=O)cc(OCCCOC)c2n1CCCNC(=O)OCc1ccccc1
[1]
  remaining at 1 h: 36.4%

## CCn1nc(C)cc1C(=O)Nc1nc2cc(C(N)=O)cc(OC)c2n1NCCCC(=O)NCc1ccc(F)cc1
[2]
  EC50: > 100 µM
[3]
  Activity: inactive
[4]
  Activity: inactive
[5]
  remaining at 2 h: 60.5%
THP1-Dual
  IC50: > 100 µM
[6]
  EC50: 5.5 µM
[6]; filed as agonist
  Activity: Dose-Dependent Effect
[7]
  Activity: Dose-Dependent Effect
[8]
  EC50: 1.58 µM
[9]
  Activity: Active
[10]
  EC50: 0.12 µM
[10]; filed as agonist, dose 0.046-0.412 µM
  Activity: Dose-Dependent Effect
[11]
  Activity: inactive
[12]
  Activity: Active
[13]
  Activity: Active
[14]
  Activity: Dose-Dependent Effect
[15]
  Activity: Active
[16]
  Activity: Dose-Dependent Effect
[17]
  EC50: 0.27 µM
[17]; filed as agonist, dose 0.137-1.235 µM
  Activity: Dose-Dependent Effect
[18]
  EC50: 0.03 µM
[18]; filed as agonist, dose 0.006-0.16 µM
  Activity: Dose-Dependent Effect
[19]
  Activity: Active
[20]
  EC50: 3.2 µM
[20]; filed as agonist
  Activity: Dose-Dependent Effect
[21]
  Activity: Active
[22]
  Activity: Active
[23]
  Activity: inactive
[24]
  Activity: inactive
[25]
  remaining at 1 h: 78.7%
[26]
  Activity: Active
[27]
  Activity: Active
[28]
  Activity: Active
[29]
  Activity: Active
[30]
  Activity: inactive
[31]
  EC50: > 100 µM
[32]
  EC50: 4.74 µM
[32]; filed as agonist
  Activity: Dose-Dependent Effect
[33]
  IC50: > 100 µM
[34]
  Activity: Active
